The results in this text go back to article PMC6792352, “Limited Chemical Structural Diversity Found to Modulate Thyroid Hormone Receptor in the Tox21 Chemical Library” (Environmental Health Perspectives, 2019).

Where a name gives a salt, the structure may show the parent alone.

This data set is described as follows: in vitro. Particulars: rat, gh3-tre-luc cells.

Broadly, the CC50 is the concentration that lowers cell viability or growth by half. Higher therefore signals lower toxicity to the cells. Consider `CN(C)CCCN1c2ccccc2C(C)(C)c2ccccc21` [Dimetacrine], for which, where the note is “AC50 (uM) modified / 1000”, the CC50 at 24 h came to 14.8 µM.
The same measure, in the same setting: next, `CCCCOC(=O)COC(=O)c1ccccc1C(=O)OCCCC` [Butylphthalyl butylglycolate]: > 90 µM; `BrCCCCCBr` [Pentane,1,5-dibromo-]: > 100 µM.
Still for that read-out and setting: next, `O=C(CCS)OCC(COC(=O)CCS)(COC(=O)CCS)COC(=O)CCS` [3-[(3-Sulfanylpropanoyl)oxy]-2,2-bis{[(3-sulfanylpropanoyl)oxy]methyl}propyl 3-sulfanylpropanoate]: > 90 µM.
As for `C=CCOC(=O)COCCC(C)C` [Prop-2-en-1-yl (3-methylbutoxy)acetate], the CC50 at 24 h (AC50 (uM) modified / 1000) is > 90 µM.
`CC(C)[C@]12CC(=O)[C@H](C)[C@H]1C2` [alpha-Thujone]: the CC50 at 24 h (AC50 (uM) modified / 1000, Tox21_110001=Tox21_200868, viability, 1 nM T3 present, 24 h) was > 90 µM.
`Cc1ccc2c(ccc3ccccc32)c1` [2-Methylphenanthrene]: the CC50 at 24 h (AC50 (uM) modified / 1000) was > 90 µM.
Same read-out and setting: as for `Cc1nnc2n1-c1sc(CCC(=O)N3CCOCC3)cc1C(c1ccccc1Cl)=NC2` [Apafant], the figure is > 50 µM.
For `CC(=O)OCC(=O)NCCCOc1cccc(CN2CCCCC2)c1` [Roxatidine acetate hydrochloride], under “AC50 (uM) modified / 1000”, the CC50 at 24 h was > 50 µM.
The same measure, in the same setting: next, `NC(N)=S` [Thiourea]: > 90 µM; `CCCCN(CC)C(=O)SCCC` [Pebulate]: > 90 µM; `CC(C)=CCC/C(C)=C/C=N/O` [Citral oxime]: > 90 µM.
In the case of `CC(C)(C)c1ccc(CCOc2ncnc3ccccc23)cc1` [Fenazaquin], the CC50 at 24 h (AC50 (uM) modified / 1000) is > 90 µM.
Same read-out and setting: as for `CCOC(=O)C1=C(C)NC(C)=C(C(=O)OCC)C1c1ccccc1/C=C/C(=O)OC(C)(C)C` [Lacidipine], the figure is 11.2 µM; as for `COc1ccccc1OCCNCC(O)COc1cccc2[nH]c3ccccc3c12` (stereo not shown) [Carvedilol tartrate], 24 µM; as for `CCCCCCC(=O)OCC` [Ethyl heptanoate], > 90 µM.
Same read-out and setting: next, `CCC(C)(O)CCC=C(C)C` (stereo not shown) [3,7-Dimethyloct-6-en-3-ol]: > 90 µM.
On the same count and under the same terms, next, `C[N+](C)(C)CCCCCC[N+](C)(C)C` [N,N,N,N',N',N'-Hexamethylhexane-1,6-diaminium]: > 50 µM.
Where the note is “AC50 (uM) modified / 1000”, `N#Cc1sc2c(=O)c3ccccc3c(=O)c=2sc1C#N` [Dithianon] came in with a CC50 at 24 h of 29.4 µM.
As for `CCCC[N+](CCCC)(CCCC)CCCC` [Tetrabutylammonium bromide], where the note is “AC50 (uM) modified / 1000”, the CC50 at 24 h was > 90 µM.
On the same count and under the same terms, next, `CCCCCCCCCCCCOCCOCCOCCOCCOCCOCCOCCOCCOCCO` [Polyoxyethylene (9) lauryl ether]: 9.84 µM; `CCCC[n+]1ccccc1` [1-Butylpyridinium hexafluorophosphate]: > 90 µM.
Take `C[Si]1(C)O[Si](C)(C)O[Si](C)(C)O[Si](C)(C)O[Si](C)(C)O1` [Decamethylcyclopentasiloxane]: the CC50 at 24 h (AC50 (uM) modified / 1000) is > 90 µM.
For the compound `CN(C)P(=O)(N(C)C)N(C)C` [Hexamethylphosphoramide], the CC50 at 24 h (AC50 (uM) modified / 1000, Tox21_110001=Tox21_201837, viability, 1 nM T3 present, 24 h) was > 90 µM.
Turning to `CCC(=O)OC` [Methyl propanoate], the CC50 at 24 h (AC50 (uM) modified / 1000) is > 90 µM.
Still for that read-out and setting: next, `O=S1(=O)OC(c2cc(Br)c(O)c(Br)c2)(c2cc(Br)c(O)c(Br)c2)c2ccccc21` [Bromophenol blue]: 63.9 µM; `ON=C1CCCC1` [Cyclopentanone oxime]: > 90 µM; `CCCCOC(=O)CCCCCCCC(=O)OCCCC` [Dibutyl nonanedioate]: > 90 µM.
`CC[C@@H](O)C(C[C@@H](C)N(C)C)(c1ccccc1)c1ccccc1` [(+)-alpha-Methadol hydrochloride]: the CC50 at 24 h (AC50 (uM) modified / 1000, Tox21_110001=Tox21_112828, viability, 1 nM T3 present, 24 h) was > 100 µM.
As to `CCCCC(CC)COP(=O)(Oc1ccccc1)Oc1ccccc1` (stereo not shown) [2-Ethylhexyl diphenyl phosphate], the CC50 at 24 h (AC50 (uM) modified / 1000, Tox21_110001=Tox21_303313, viability, 1 nM T3 present, 24 h) was > 90 µM.
In the case of `Cc1cccc(Oc2ccccc2)c1` [1-Methyl-3-phenoxybenzene], the CC50 at 24 h (AC50 (uM) modified / 1000) is > 90 µM.
